Experimental data published in ChEMBL document CHEMBL4665792 (J Med Chem, 2020).

What was measured:
Type in all cases: functional, cell-based
MCF7 = assay: Antiproliferative activity against human MCF7 cells assessed as reduction in cell viability incubated for 24 hrs by MTT assay; settings: MCF7, 24 h
HCT-116 = assay: Antiproliferative activity against human HCT-116 cells assessed as reduction in cell viability incubated for 24 hrs by MTT assay; settings: HCT-116, 24 h
HT-29 = assay: Antiproliferative activity against human HT-29 cells assessed as reduction in cell viability incubated for 24 hrs by MTT assay; settings: HT-29, 24 h
HepG2 = assay: Antiproliferative activity against human HepG2 cells assessed as reduction in cell viability incubated for 24 hrs by MTT assay; settings: HepG2, 24 h

CC(=O)O[C@H]1C=C([C@H](C)[C@H]2CC(C)=C(C)C(=O)O2)[C@@]2(C)CC[C@H]3[C@@H](C[C@H]4O[C@]45[C@@H](OC(=O)/C=C/C(=O)N(C(C)C)C(C)C)C=CC(=O)[C@]35C)[C@]12O
IC50 (MCF7): 620 nM
IC50 (HCT-116): 350 nM
IC50 (HT-29): 190 nM
IC50 (HepG2): 360 nM

C=C(C)C(=O)O[C@H]1C=CC(=O)[C@]2(C)[C@H]3CC[C@]4(C)C([C@H](C)[C@H]5CC(C)=C(C)C(=O)O5)=C[C@H](OC(C)=O)[C@@]4(O)[C@@H]3C[C@H]3O[C@]132
IC50 (MCF7): 2110 nM
IC50 (HCT-116): 1340 nM
IC50 (HT-29): 1120 nM
IC50 (HepG2): 1450 nM

CC(=O)O[C@H]1C=C([C@H](C)[C@H]2CC(C)=C(C)C(=O)O2)[C@@]2(C)CC[C@H]3[C@@H](C[C@H]4O[C@]45[C@@H](OC(=O)/C=C/C(=O)N4CCCC4)C=CC(=O)[C@]35C)[C@]12O
IC50 (MCF7): 380 nM
IC50 (HCT-116): 200 nM
IC50 (HT-29): 250 nM
IC50 (HepG2): 290 nM

CC(=O)O[C@H]1C=C([C@H](C)[C@H]2CC(C)=C(C)C(=O)O2)[C@@]2(C)CC[C@H]3[C@@H](C[C@H]4O[C@]45[C@@H](OC(=O)N(C)C)C=CC(=O)[C@]35C)[C@]12O
IC50 (MCF7): 2100 nM
IC50 (HCT-116): 670 nM
IC50 (HT-29): 1010 nM
IC50 (HepG2): 1060 nM

CCC(=O)O[C@H]1C=CC(=O)[C@]2(C)[C@H]3CC[C@]4(C)C([C@H](C)[C@H]5CC(C)=C(C)C(=O)O5)=C[C@H](OC(C)=O)[C@@]4(O)[C@@H]3C[C@H]3O[C@]132
IC50 (MCF7): 4810 nM
IC50 (HCT-116): 570 nM
IC50 (HT-29): 1080 nM
IC50 (HepG2): 1660 nM

CC(=O)O[C@H]1C=C([C@H](C)[C@H]2CC(C)=C(C)C(=O)O2)[C@@]2(C)CC[C@H]3[C@@H](C[C@@H](O)[C@@]4(Cl)[C@@H](O)C=CC(=O)[C@]34C)[C@]12O
IC50 (MCF7): > 20000 nM
IC50 (HCT-116): > 20000 nM
IC50 (HT-29): > 20000 nM
IC50 (HepG2): > 20000 nM

CC(=O)O[C@H]1C=C([C@H](C)[C@H]2CC(C)=C(C)C(=O)O2)[C@@]2(C)CC[C@H]3[C@@H](C[C@H]4O[C@]45[C@@H](OC(=O)/C=C/c4ccccc4)C=CC(=O)[C@]35C)[C@]12O
IC50 (MCF7): 1710 nM
IC50 (HCT-116): 1230 nM
IC50 (HT-29): 770 nM
IC50 (HepG2): 700 nM

COC(=O)O[C@H]1C=CC(=O)[C@]2(C)[C@H]3CC[C@]4(C)C([C@H](C)[C@H]5CC(C)=C(C)C(=O)O5)=C[C@H](OC(C)=O)[C@@]4(O)[C@@H]3C[C@H]3O[C@]132
IC50 (MCF7): 4330 nM
IC50 (HCT-116): 1950 nM
IC50 (HT-29): 1790 nM
IC50 (HepG2): 2810 nM

CC(=O)O[C@H]1C=C([C@H](C)[C@H]2CC(C)=C(C)C(=O)O2)[C@@]2(C)CC[C@H]3[C@@H](C[C@H]4O[C@]45[C@@H](O)C(n4ccnc4)CC(=O)[C@]35C)[C@]12O (stereo not given in full)
IC50 (MCF7): > 20000 nM
IC50 (HCT-116): > 20000 nM
IC50 (HT-29): > 20000 nM
IC50 (HepG2): > 20000 nM

CC(=O)O[C@H]1C=C([C@H](C)[C@H]2CC(C)=C(C)C(=O)O2)[C@@]2(C)CC[C@H]3[C@@H](C[C@H]4O[C@]45[C@@H](OC(C)=O)C=CC(=O)[C@]35C)[C@]12O
IC50 (MCF7): 3050 nM
IC50 (HCT-116): 600 nM
IC50 (HT-29): 800 nM
IC50 (HepG2): 1570 nM

CC(=O)O[C@H]1C=C([C@H](C)[C@H]2CC(C)=C(C)C(=O)O2)[C@@]2(C)CC[C@H]3[C@@H](C[C@H]4O[C@]45[C@@H](OC(=O)/C=C/C(=O)N4CCCCC4)C=CC(=O)[C@]35C)[C@]12O
IC50 (MCF7): 610 nM
IC50 (HCT-116): 160 nM
IC50 (HT-29): 370 nM
IC50 (HepG2): 310 nM

CC(=O)O[C@H]1C=C([C@H](C)[C@H]2CC(C)=C(C)C(=O)O2)[C@@]2(C)CC[C@H]3[C@@H](C[C@H]4O[C@]45[C@@H](OC(=O)/C=C/c4ccco4)C=CC(=O)[C@]35C)[C@]12O
IC50 (MCF7): 760 nM
IC50 (HCT-116): 430 nM
IC50 (HT-29): 450 nM
IC50 (HepG2): 310 nM

CCN(C)C(=O)O[C@H]1C=CC(=O)[C@]2(C)[C@H]3CC[C@]4(C)C([C@H](C)[C@H]5CC(C)=C(C)C(=O)O5)=C[C@H](OC(C)=O)[C@@]4(O)[C@@H]3C[C@H]3O[C@]132
IC50 (MCF7): 1790 nM
IC50 (HCT-116): 1970 nM
IC50 (HT-29): 1780 nM
IC50 (HepG2): 2370 nM

C/C=C/C=C/C(=O)O[C@H]1C=CC(=O)[C@]2(C)[C@H]3CC[C@]4(C)C([C@H](C)[C@H]5CC(C)=C(C)C(=O)O5)=C[C@H](OC(C)=O)[C@@]4(O)[C@@H]3C[C@H]3O[C@]132
IC50 (MCF7): 2620 nM
IC50 (HCT-116): 1350 nM
IC50 (HT-29): 1420 nM
IC50 (HepG2): 1520 nM

CC(=O)O[C@H]1C=C([C@H](C)[C@H]2CC(C)=C(C)C(=O)O2)[C@@]2(C)CC[C@H]3[C@@H](C[C@H]4O[C@]45C(=O)C=CC(=O)[C@]35C)[C@]12O
IC50 (MCF7): > 20000 nM
IC50 (HCT-116): 3110 nM
IC50 (HT-29): 3500 nM
IC50 (HepG2): 6050 nM

CC(=O)O[C@H]1C=C([C@H](C)[C@H]2CC(C)=C(C)C(=O)O2)[C@@]2(C)CC[C@H]3[C@@H](C[C@H]4O[C@]45[C@@H](OC(=O)/C=C/C(=O)N4CCOCC4)C=CC(=O)[C@]35C)[C@]12O
IC50 (MCF7): 760 nM
IC50 (HCT-116): 460 nM
IC50 (HT-29): 430 nM
IC50 (HepG2): 370 nM

CC(=O)O[C@H]1C=C([C@H](C)[C@H]2CC(C)=C(C)C(=O)O2)[C@@]2(C)CC[C@H]3[C@@H](C[C@H]4O[C@]45[C@@H](O[Si](C)(C)C(C)(C)C)C=CC(=O)[C@]35C)[C@]12O
IC50 (MCF7): 6140 nM
IC50 (HCT-116): 1770 nM
IC50 (HT-29): 1060 nM
IC50 (HepG2): 3010 nM

CCOC(=O)/C=C/C(=O)O[C@H]1C=CC(=O)[C@]2(C)[C@H]3CC[C@]4(C)C([C@H](C)[C@H]5CC(C)=C(C)C(=O)O5)=C[C@H](OC(C)=O)[C@@]4(O)[C@@H]3C[C@H]3O[C@]132
IC50 (MCF7): 280 nM
IC50 (HCT-116): 250 nM
IC50 (HT-29): 230 nM
IC50 (HepG2): 240 nM

CC(=O)O[C@H]1C=C([C@H](C)[C@H]2CC(C)=C(C)C(=O)O2)[C@@]2(C)CC[C@H]3[C@@H](C[C@H]4O[C@]45[C@@H](OC(=O)C=C(C)C)C=CC(=O)[C@]35C)[C@]12O
IC50 (MCF7): 750 nM
IC50 (HCT-116): 280 nM
IC50 (HT-29): 460 nM
IC50 (HepG2): 260 nM

CC(=O)O[C@H]1C=C([C@H](C)[C@H]2CC(C)=C(C)C(=O)O2)[C@@]2(C)CC[C@H]3[C@@H](C[C@H]4O[C@]45[C@@H](OC(=O)/C=C/c4cccs4)C=CC(=O)[C@]35C)[C@]12O
IC50 (MCF7): 630 nM
IC50 (HCT-116): 380 nM
IC50 (HT-29): 430 nM
IC50 (HepG2): 530 nM

CC(=O)O[C@H]1[C@@H]2O[C@]2([C@H](C)[C@H]2CC(C)=C(C)C(=O)O2)[C@@]2(C)CC[C@H]3[C@@H](C[C@H]4O[C@]45[C@@H](O)C=CC(=O)[C@]35C)[C@]12O
IC50 (MCF7): 9360 nM
IC50 (HCT-116): 5040 nM
IC50 (HT-29): 4550 nM
IC50 (HepG2): 4660 nM

CC(=O)O[C@H]1C=C([C@H](C)[C@H]2CC(C)=C(C)C(=O)O2)[C@@]2(C)CC[C@H]3[C@@H](C[C@H]4O[C@]45[C@@H](OC(=O)C(NC(=O)OC(C)(C)C)C(C)C)C=CC(=O)[C@]35C)[C@]12O (stereo not given in full)
IC50 (MCF7): 3050 nM
IC50 (HCT-116): 600 nM
IC50 (HT-29): 800 nM
IC50 (HepG2): 1570 nM

CC(=O)O[C@H]1C=C([C@H](C)[C@H]2CC(C)=C(C)C(=O)O2)[C@@]2(C)CC[C@H]3[C@@H](C[C@H]4O[C@]45[C@@H](OC(=O)N4CCOCC4)C=CC(=O)[C@]35C)[C@]12O
IC50 (MCF7): 3890 nM
IC50 (HCT-116): 780 nM
IC50 (HT-29): 990 nM
IC50 (HepG2): 670 nM

CCO/C=C/C(=O)O[C@H]1C=CC(=O)[C@]2(C)[C@H]3CC[C@]4(C)C([C@H](C)[C@H]5CC(C)=C(C)C(=O)O5)=C[C@H](OC(C)=O)[C@@]4(O)[C@@H]3C[C@H]3O[C@]132
IC50 (MCF7): 1210 nM
IC50 (HCT-116): 670 nM
IC50 (HT-29): 590 nM
IC50 (HepG2): 570 nM

CC(=O)O[C@H]1C=C([C@H](C)[C@H]2CC(C)=C(C)C(=O)O2)[C@@]2(C)CC[C@H]3[C@@H](C[C@H]4O[C@]45[C@@H](O)C(N(C)CC(=O)O)CC(=O)[C@]35C)[C@]12O (stereo not given in full)
IC50 (MCF7): > 20000 nM
IC50 (HCT-116): > 20000 nM
IC50 (HT-29): > 20000 nM
IC50 (HepG2): > 20000 nM

CC(=O)O[C@H]1C=C([C@H](C)[C@H]2CC(C)=C(C)C(=O)O2)[C@@]2(C)CC[C@H]3[C@@H](C[C@H]4O[C@]45[C@@H](OC(=O)c4cccs4)C=CC(=O)[C@]35C)[C@]12O
IC50 (MCF7): 4080 nM
IC50 (HCT-116): 3870 nM
IC50 (HT-29): 2390 nM
IC50 (HepG2): 2910 nM

CC(=O)O[C@H]1C=C([C@H](C)[C@H]2CC(C)=C(C)C(=O)O2)[C@@]2(C)CC[C@H]3[C@@H](C[C@H]4O[C@]45[C@@H](OC(=O)/C=C/c4ccc(F)cc4)C=CC(=O)[C@]35C)[C@]12O
IC50 (MCF7): 1580 nM
IC50 (HCT-116): 1030 nM
IC50 (HT-29): 720 nM
IC50 (HepG2): 610 nM

CCN(CC)C(=O)O[C@H]1C=CC(=O)[C@]2(C)[C@H]3CC[C@]4(C)C([C@H](C)[C@H]5CC(C)=C(C)C(=O)O5)=C[C@H](OC(C)=O)[C@@]4(O)[C@@H]3C[C@H]3O[C@]132
IC50 (MCF7): 1210 nM
IC50 (HCT-116): 430 nM
IC50 (HT-29): 750 nM
IC50 (HepG2): 690 nM

CC(=O)O[C@H]1C=C([C@H](C)[C@H]2CC(C)=C(C)C(=O)O2)[C@@]2(C)CC[C@H]3[C@@H](C[C@H]4O[C@]45[C@@H](OC(=O)/C=C/c4cccc(C(F)(F)F)c4)C=CC(=O)[C@]35C)[C@]12O
IC50 (MCF7): 1390 nM
IC50 (HCT-116): 650 nM
IC50 (HT-29): 810 nM
IC50 (HepG2): 420 nM

CC(=O)O[C@H]1C=C([C@H](C)[C@H]2CC(C)=C(C)C(=O)O2)[C@@]2(C)CC[C@H]3[C@@H](C[C@H]4O[C@]45[C@@H](OC(=O)C(C)NC(=O)OC(C)(C)C)C=CC(=O)[C@]35C)[C@]12O (stereo not given in full)
IC50 (MCF7): 4330 nM
IC50 (HCT-116): 1950 nM
IC50 (HT-29): 1790 nM
IC50 (HepG2): 2810 nM
